Test results: ChEMBL document CHEMBL6071207, “In Vivo-Active Soluble Epoxide Hydrolase-Targeting PROTACs with Improved Potency and Stability” (ACS Med Chem Lett, 2024)
Calls of active or inactive are those of the source. The calls are words filed in the database; no cut-off is given here.

How the values were obtained:
[1] = biological target: T1, Bifunctional epoxide hydrolase 2 (Mus musculus, UniProt P34914); assay: Inhibition of mouse recombinant sEH using fluorogenic substrate
T1 sequence (P34914 whole entry): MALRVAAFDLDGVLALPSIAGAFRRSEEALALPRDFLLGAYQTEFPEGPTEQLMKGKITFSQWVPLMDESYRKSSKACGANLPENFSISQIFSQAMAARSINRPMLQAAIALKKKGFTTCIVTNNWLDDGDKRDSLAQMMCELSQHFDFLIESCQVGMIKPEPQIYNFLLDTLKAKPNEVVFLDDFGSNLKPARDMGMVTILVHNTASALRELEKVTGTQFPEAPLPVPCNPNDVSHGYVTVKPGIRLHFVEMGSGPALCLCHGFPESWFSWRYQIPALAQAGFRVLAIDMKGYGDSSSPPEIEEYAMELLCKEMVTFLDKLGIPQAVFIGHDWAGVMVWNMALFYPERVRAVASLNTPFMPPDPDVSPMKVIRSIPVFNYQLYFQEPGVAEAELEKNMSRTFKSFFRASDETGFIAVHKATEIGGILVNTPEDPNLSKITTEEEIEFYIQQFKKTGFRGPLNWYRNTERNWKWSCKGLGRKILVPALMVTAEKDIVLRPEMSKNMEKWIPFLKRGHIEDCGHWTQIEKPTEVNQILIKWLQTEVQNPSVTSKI

[2] = Metabolic stability in mouse liver microsome assessed as parent compound remaining incubated for 5 to 45 mins in absence of NADPH by UPLC-MS/MS analysis; type: ADME; details: microsomes, time 5-45 min
[3] = biological target: T2, Eukaryotic translation initiation factor 2-alpha kinase 3 (Homo sapiens) (UniProt Q9NZJ5); assay: Inhibition of PERK phosphorylation in HEK293T cells at 100 nM pretreated with compound for 12 hrs followed by thapsigargin addition and measured after 24 hrs by immunoblotting analysis; type: cell-based; details: time 36.0 hrs
T2 sequence (whole entry): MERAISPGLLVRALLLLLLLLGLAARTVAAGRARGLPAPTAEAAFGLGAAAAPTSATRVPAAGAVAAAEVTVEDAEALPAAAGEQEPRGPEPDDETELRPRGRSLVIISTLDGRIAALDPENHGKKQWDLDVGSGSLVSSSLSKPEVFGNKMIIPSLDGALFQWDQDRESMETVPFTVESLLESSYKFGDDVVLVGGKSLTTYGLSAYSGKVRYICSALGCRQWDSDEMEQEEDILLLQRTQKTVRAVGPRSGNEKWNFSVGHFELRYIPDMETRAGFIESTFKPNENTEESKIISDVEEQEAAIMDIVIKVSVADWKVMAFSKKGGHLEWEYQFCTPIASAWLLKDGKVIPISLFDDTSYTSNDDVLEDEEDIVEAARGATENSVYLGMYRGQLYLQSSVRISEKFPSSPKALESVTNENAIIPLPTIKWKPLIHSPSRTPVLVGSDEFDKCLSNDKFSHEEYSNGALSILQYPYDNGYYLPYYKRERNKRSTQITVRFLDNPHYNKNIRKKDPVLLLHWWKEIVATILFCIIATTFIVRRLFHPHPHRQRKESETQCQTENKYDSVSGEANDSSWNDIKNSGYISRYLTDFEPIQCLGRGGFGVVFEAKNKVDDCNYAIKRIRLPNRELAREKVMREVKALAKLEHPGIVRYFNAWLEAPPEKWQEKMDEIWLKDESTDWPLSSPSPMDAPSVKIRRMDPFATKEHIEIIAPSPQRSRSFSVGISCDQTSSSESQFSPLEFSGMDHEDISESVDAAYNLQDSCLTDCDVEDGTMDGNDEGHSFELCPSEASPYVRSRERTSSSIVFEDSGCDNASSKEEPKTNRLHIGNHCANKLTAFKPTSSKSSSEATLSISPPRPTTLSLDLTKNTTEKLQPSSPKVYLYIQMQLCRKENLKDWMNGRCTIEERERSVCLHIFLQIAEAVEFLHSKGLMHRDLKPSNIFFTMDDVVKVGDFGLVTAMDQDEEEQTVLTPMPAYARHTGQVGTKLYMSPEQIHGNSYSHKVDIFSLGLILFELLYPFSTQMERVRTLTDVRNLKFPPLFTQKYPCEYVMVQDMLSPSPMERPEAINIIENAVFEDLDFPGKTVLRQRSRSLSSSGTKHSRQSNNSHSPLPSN

[4] = biological target: Eukaryotic translation initiation factor 2 subunit 1 (Homo sapiens) (UniProt P05198); assay: Inhibition of eIF2alpha phosphorylation in HEK293T cells at 100 nM pretreated with compound for 12 hrs followed by thapsigargin addition and measured after 24 hrs by immunoblotting analysis; type: cell-based; details: time 36.0 hrs
Chain of Eukaryotic translation initiation factor 2 subunit 1 (Homo sapiens) (P05198 whole entry): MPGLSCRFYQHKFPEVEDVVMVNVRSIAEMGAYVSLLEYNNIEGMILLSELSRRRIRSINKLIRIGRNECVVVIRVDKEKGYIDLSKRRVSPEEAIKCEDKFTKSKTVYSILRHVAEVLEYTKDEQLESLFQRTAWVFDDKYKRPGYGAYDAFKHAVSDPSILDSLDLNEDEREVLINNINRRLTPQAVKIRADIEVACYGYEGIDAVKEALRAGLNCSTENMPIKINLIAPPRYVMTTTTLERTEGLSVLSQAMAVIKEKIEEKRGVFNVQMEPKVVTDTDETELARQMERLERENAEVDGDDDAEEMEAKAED

HEK293T [5] = assay: Inhibition of IRE1alpha phosphorylation in HEK293T cells at 100 nM pretreated with compound for 12 hrs followed by thapsigargin addition and measured after 24 hrs by immunoblotting analysis; type: cell-based; details: Homo sapiens, time 36.0 hrs
[6] = Chemical stability of compound in cell culture medium assessed as half life measured for 24 hrs by LC-MS analysis; type: physicochemical
[7] = Chemical stability of compound in cell culture medium assessed as degradation measured after 24 hrs by LC-MS analysis; type: physicochemical; details: read-out: Drug degradation
[8] = Metabolic stability in mouse liver microsome assessed as intrinsic clearance incubated for 5 to 45 mins in presence of NADPH by UPLC-MS/MS analysis; type: ADME; details: liver microsomes, time 5-45 min, read-out: CLH
[9] = Metabolic stability in mouse liver microsome assessed as half life incubated for 5 to 45 mins in presence of NADPH by UPLC-MS/MS analysis; type: ADME; details: liver microsomes, time 5-45 min
HepG2 = assay: Cytotoxicity against human HepG2 cells assessed as cell viability at 1 uM incubated for 24 hrs by MTT assay; details: HepG2, 24 h, read-out: Activity
[10] = AUC (0 to infinity) in male CD-1 mouse at 10 mg/kg, ip measured up to 24 hrs by LC-MS/MS analysis; type: ADME, organism-based; details: in vivo
[11] = Tmax in male CD-1 mouse at 10 mg/kg, ip measured up to 24 hrs by LC-MS/MS analysis; type: ADME, organism-based; details: in vivo
[12] = Cmax in male CD-1 mouse at 10 mg/kg, ip measured up to 24 hrs by LC-MS/MS analysis; type: ADME, organism-based; details: in vivo
[13] = Half life in male CD-1 mouse at 10 mg/kg, ip measured up to 24 hrs by LC-MS/MS analysis; type: ADME, organism-based; details: in vivo
[14] = MRT (0 to infinity) in male CD-1 mouse at 10 mg/kg, ip measured up to 24 hrs by LC-MS/MS analysis; type: ADME, organism-based; details: in vivo
HEK-293T [15] = assay: Induction of apoptosis in HEK293T cells assessed as chromatin condensation by measuring improvement in cell survival pretreated with compound for 12 hrs followed by thapsigargin addition and measured after 24 hrs by Hoechst33258 staining based analysis; type: functional; details: Homo sapiens, time 36.0 hrs
HEK-293T [16] = assay: Induction of apoptosis in HEK293T cells assessed as reduction in thapsigargin-induced cell death pretreated with compound for 12 hrs followed by thapsigargin addition and measured after 24 hrs by propidium iodide staining based analysis; type: functional; details: Homo sapiens, time 36.0 hrs
[17] = biological target: T2, Eukaryotic translation initiation factor 2-alpha kinase 3 (Homo sapiens); assay: Inhibition of PERK phosphorylation in HEK293T cells at 100 to 1000 nM pretreated with compound for 12 hrs followed by thapsigargin addition and measured after 24 hrs by immunoblotting analysis; type: cell-based; details: dose 100-1000 nM, time 36.0 hrs
[18] = biological target: T3, Protein cereblon/Bifunctional epoxide hydrolase 2 (Mus musculus) (UniProt P34914+Q8C7D2); assay: In-vivo PROTAC activity at sEH/CRBN in Male C57BL/6J mouse assessed as reduction in sEH level in BAT at 12 mg/kg, ip measured after 24 hrs by immunoblotting analysis; type: functional, organism-based
T3 sequence (Q8C7D2 whole entry, looked up, one chain of several): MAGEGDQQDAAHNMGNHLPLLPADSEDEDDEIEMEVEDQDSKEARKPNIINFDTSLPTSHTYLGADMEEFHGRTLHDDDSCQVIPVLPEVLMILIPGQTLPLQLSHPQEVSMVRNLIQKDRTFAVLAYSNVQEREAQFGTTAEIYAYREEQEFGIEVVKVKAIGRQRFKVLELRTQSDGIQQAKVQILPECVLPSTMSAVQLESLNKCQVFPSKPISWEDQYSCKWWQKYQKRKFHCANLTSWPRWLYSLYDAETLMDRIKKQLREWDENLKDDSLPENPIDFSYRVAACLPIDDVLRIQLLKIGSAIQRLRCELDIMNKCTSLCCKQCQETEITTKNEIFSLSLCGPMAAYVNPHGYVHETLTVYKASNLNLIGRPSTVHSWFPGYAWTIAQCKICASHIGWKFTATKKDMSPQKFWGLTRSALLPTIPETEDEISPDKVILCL

[19] = biological target: Eukaryotic translation initiation factor 2 subunit 1 (Homo sapiens) (UniProt P05198); assay: Inhibition of eIF2alpha phosphorylation in HEK293T cells at 100 to 1000 nM pretreated with compound for 12 hrs followed by thapsigargin addition and measured after 24 hrs by immunoblotting analysis; type: cell-based; details: dose 100-1000 nM, time 36.0 hrs
[20] = biological target: T3, Protein cereblon/Bifunctional epoxide hydrolase 2 (Mus musculus); assay: In-vivo PROTAC activity at sEH/CRBN in Male C57BL/6J mouse assessed as reduction in sEH level in liver at 12 mg/kg, ip measured after 24 hrs by immunoblotting analysis; type: functional, organism-based
HEK293T [21] = assay: Inhibition of IRE1alpha phosphorylation in HEK293T cells at 100 to 1000 nM pretreated with compound for 12 hrs followed by thapsigargin addition and measured after 24 hrs by immunoblotting analysis; type: cell-based; details: Homo sapiens, dose 100-1000 nM, time 36.0 hrs
[22] = biological target: Protein cereblon/Bifunctional epoxide hydrolase 2 (Homo sapiens, UniProt P34913+Q96SW2); assay: PROTAC activity at sEH/CRBN in human HepG2 cells assessed as induction of sEH degradation measured for 24 hrs by immunoblot analysis; type: cell-based
Chain of Protein cereblon/Bifunctional epoxide hydrolase 2 (P34913 whole entry): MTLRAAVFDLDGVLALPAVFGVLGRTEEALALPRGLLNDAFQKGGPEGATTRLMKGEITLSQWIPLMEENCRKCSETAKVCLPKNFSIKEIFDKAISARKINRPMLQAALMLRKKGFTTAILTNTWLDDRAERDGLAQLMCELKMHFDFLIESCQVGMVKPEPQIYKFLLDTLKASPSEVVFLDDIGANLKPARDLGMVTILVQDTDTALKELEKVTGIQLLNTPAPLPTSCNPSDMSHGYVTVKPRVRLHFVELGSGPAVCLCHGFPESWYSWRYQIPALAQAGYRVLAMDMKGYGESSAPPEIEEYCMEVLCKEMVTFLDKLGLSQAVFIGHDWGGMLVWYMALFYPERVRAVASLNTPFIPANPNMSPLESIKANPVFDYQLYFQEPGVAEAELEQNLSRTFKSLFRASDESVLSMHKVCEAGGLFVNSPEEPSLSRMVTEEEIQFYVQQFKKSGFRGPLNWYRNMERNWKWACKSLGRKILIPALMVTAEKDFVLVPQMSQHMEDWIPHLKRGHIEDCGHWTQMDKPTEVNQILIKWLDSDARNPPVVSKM
Chain of Protein cereblon/Bifunctional epoxide hydrolase 2 (Q96SW2 whole entry): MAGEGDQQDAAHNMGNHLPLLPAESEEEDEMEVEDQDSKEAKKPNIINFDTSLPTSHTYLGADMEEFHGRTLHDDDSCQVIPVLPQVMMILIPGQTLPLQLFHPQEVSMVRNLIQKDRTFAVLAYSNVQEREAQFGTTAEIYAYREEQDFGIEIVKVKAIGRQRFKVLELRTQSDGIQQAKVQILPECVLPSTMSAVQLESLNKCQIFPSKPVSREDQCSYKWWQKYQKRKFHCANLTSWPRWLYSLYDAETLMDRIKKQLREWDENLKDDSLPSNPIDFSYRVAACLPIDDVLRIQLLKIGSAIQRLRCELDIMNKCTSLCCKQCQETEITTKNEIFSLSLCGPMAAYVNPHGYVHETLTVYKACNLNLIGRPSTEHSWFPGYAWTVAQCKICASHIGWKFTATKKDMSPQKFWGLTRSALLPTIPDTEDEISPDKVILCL

## O=C1CCC(N2C(=O)c3cc(F)c(N4CCN(CC5CCN(C(=O)CCCCCCCCNC(=O)c6ccc(O[C@H]7CC[C@H](NC(=O)Nc8ccc(OC(F)(F)F)cc8)CC7)cc6)CC5)CC4)cc3C2=O)C(=O)N1 (stereo partly drawn)
[1]
  IC50: 20 nM

## O=C(COc1cccc2c1C(=O)N(C1CCC(=O)NC1=O)C2=O)NCCOCCOCCOCCOCCNC(=O)c1ccc(O[C@H]2CC[C@H](NC(=O)Nc3ccc(OC(F)(F)F)cc3)CC2)cc1 (stereo partly drawn)
[2]
  Stability: 90%
[3]
  inhibition: inactive
[4]
  inhibition: inactive
HEK293T [5]
  inhibition: inactive
[6]
  half-life: 1.1 h
[7]
  degraded at 24 h: ~100%
[8]
  CLint scaled: 9200 mL/min/kg
[9]
  half-life: 0.00983 h

## Cc1ncsc1-c1ccc(CNC(=O)[C@@H]2C[C@@H](O)CN2C(=O)[C@@H](NC(=O)CCOCCOCCOCCOCCC(=O)N2CCC(NC(=O)Nc3ccc(OC(F)(F)F)cc3)CC2)C(C)(C)C)cc1
[1]
  IC50: 10 nM

## O=C1CCC(N2C(=O)c3cccc(N4CCN(CC5CCN(C(=O)CCCCCCCCNC(=O)c6ccc(O[C@H]7CC[C@H](NC(=O)Nc8ccc(OC(F)(F)F)cc8)CC7)cc6)CC5)CC4)c3C2=O)C(=O)N1 (stereo partly drawn)
HepG2
  viability at 1 µM: 24%
[1]
  IC50: 1.8 nM

## O=C1CCC(N2C(=O)c3cccc(N4CCN(C(=O)CCCCCCCCNC(=O)c5ccc(O[C@H]6CC[C@H](NC(=O)Nc7ccc(OC(F)(F)F)cc7)CC6)cc5)CC4)c3C2=O)C(=O)N1 (stereo partly drawn)
HepG2
  viability at 1 µM: -47%
[1]
  IC50: 0.9 nM

## O=C1CCC(N2Cc3ccc(N4CCN(CC5CCN(C(=O)CCCCCCCCNC(=O)c6ccc(O[C@H]7CC[C@H](NC(=O)Nc8ccc(OC(F)(F)F)cc8)CC7)cc6)CC5)CC4)cc3C2=O)C(=O)N1 (stereo partly drawn)
[10]
  AUC(0-inf): 31000 ng·h/mL
[11]
  Tmax: 0.33 h
HepG2
  viability at 1 µM: 7%
[1]
  IC50: 4.8 nM
[12]
  Cmax: 3500 ng/mL
[13]
  half-life: 7.1 h
[14]
  MRT inf: 9.3 h

## O=C(Nc1ccc(OC(F)(F)F)cc1)N[C@H]1CC[C@H](Oc2ccc(C(=O)O)cc2)CC1
[3]
  inhibition: inactive
[4]
  inhibition: inactive
HEK293T [5]
  inhibition: inactive

## O=C1CCC(N2C(=O)c3cccc(NCCOCCOCCOCCOCCC(=O)N4CCC(NC(=O)Nc5ccc(OC(F)(F)F)cc5)CC4)c3C2=O)C(=O)N1 (stereo not drawn)
[1]
  IC50: 4.6 nM

## O=C1CCC(N2C(=O)c3ccc(N4CCN(CC5CCN(C(=O)CCCCCCCCC(=O)N6CCC(NC(=O)Nc7ccc(OC(F)(F)F)cc7)CC6)CC5)CC4)cc3C2=O)C(=O)N1 (stereo not drawn)
[10]
  AUC(0-inf): 61000 ng·h/mL
[11]
  Tmax: 0.33 h
[1]
  IC50: 4.6 nM
[12]
  Cmax: 3000 ng/mL
[13]
  half-life: 5.8 h
[14]
  MRT inf: 4 h

## O=C1CCC(N2C(=O)c3ccc(N4CCN(C(=O)CCCCCCCCNC(=O)c5ccc(O[C@H]6CC[C@H](NC(=O)Nc7ccc(OC(F)(F)F)cc7)CC6)cc5)CC4)cc3C2=O)C(=O)N1 (stereo partly drawn)
[2]
  Stability: > 99%
[1]
  IC50: 9.9 nM
[6]
  half-life: > 24 h
[8]
  CLint scaled: 170 mL/min/kg
[9]
  half-life: 0.517 h

## O=C1CCC(N2C(=O)c3ccc(N4CCN(CC5CCN(C(=O)CCCCCCCCNC(=O)c6ccc(O[C@H]7CC[C@H](NC(=O)Nc8ccc(OC(F)(F)F)cc8)CC7)cc6)CC5)CC4)cc3C2=O)C(=O)N1 (stereo partly drawn)
[10]
  AUC(0-inf): 58000 ng·h/mL
[11]
  Tmax: 6.7 h
[2]
  Stability: > 99%
HepG2
  viability at 1 µM: -38%
[1]
  IC50: 210 nM
[6]
  half-life: > 24 h
HEK-293T [15]
  Activity: Active
HEK-293T [16]
  Activity: Active
[17]
  inhibition: Active
[18]
  Activity: Active
[12]
  Cmax: 2800 ng/mL
[13]
  half-life: 12 h
[19]
  inhibition: Active
[14]
  MRT inf: 17 h
[20]
  Activity: Active
[8]
  CLint scaled: 43 mL/min/kg
[9]
  half-life: > 2 h
HEK293T [21]
  inhibition: Active

## O=C1CCC(N2C(=O)c3cc(F)c(N4CCN(C(=O)CCCCCCCCNC(=O)c5ccc(O[C@H]6CC[C@H](NC(=O)Nc7ccc(OC(F)(F)F)cc7)CC6)cc5)CC4)cc3C2=O)C(=O)N1 (stereo partly drawn)
HepG2
  viability at 1 µM: -6%
[1]
  IC50: 2.2 nM

## O=C(COc1cccc2c1C(=O)N(C1CCC(=O)NC1=O)C2=O)NCCOCCOCCOCCCNC(=O)c1ccc(O[C@H]2CC[C@H](NC(=O)Nc3ccc(OC(F)(F)F)cc3)CC2)cc1 (stereo partly drawn)
[7]
  degraded at 24 h: ~100%
[22]
  DC50: > 1000 nM
